Measurements from US20100197800A1, “Treatment and/or Prevention of Presbycusis by Modulation of Metabotropic Glutamate Receptor 7” (priority 2007, published 2010).
pEC50, pIC50: −log10 of the molar value. Where two headings read alike, the source gives them in different places.

Columns and labels:
mGluR7 [1] = biological target: T1, mGluR7 (Homo sapiens, UniProt Q14831); parameters: host or cells: CHO cells, transfected; conditions: CHO cells coexpressing human mGluR7 with G15; cited from earlier work
rat mGluR7 [2] = biological target: T2, rat mGluR7 (Rattus norvegicus, UniProt P35400); conditions: cited from earlier work
T2 construct: host or cells: CHO cells, transfected

rat mGluR7 [3] = biological target: T2, rat mGluR7; conditions: CHO cells expressing rat mGluR7; read-out: IC50, inhibition of L-AP4-induced inhibition of forskolin-stimulated cAMP accumulation; cited from earlier work
human mGluR7b = human mGluR7b (Homo sapiens, UniProt Q14831); conditions: agonist; cited from earlier work
mGluR4a = mGluR4a (Homo sapiens, UniProt Q14833); conditions: agonist; cited from earlier work
presbycusis = experiment: treatment of patients with presbycusis, hearing threshold; format: in vivo, human; conditions: for hearing threshold left ear / hearing threshold right ear: after 14 days
Method: A person presents with symptoms of presbycusis, including moderate loss of higher frequency (above 2000 Hz) hearing (50 decibel threshold) in both ears. The person is administered two drops per ear twice daily of a topical otic formulation comprising 10 ug/ml of AMN082 in a phosphate-buffered saline and further comprising 0.25% the carboxyvinyl water swellable gelling agent, Carbopol 934P; i.e., about 1 ug nGluR7 agonist per ear per dosing. After 14 days, the patient is tested by an audiologist. The threshold is lowered to 35 decibels right ear and 40 decibels left ear.
A person presents with symptoms of presbycusis, including loss of moderately high frequency (above 1000 Hz) hearing (40 decibel threshold right ear and 35 decibel threshold left ear). The person is administered an oral formulation 4 times per day comprising 2 ug per dose of AMN082. The extended release capsule comprises a matrix of 10% by weight hydroxypropyl methylcellulose (e.g., Methocel®; Dow Chemical Company, U.S.A), and 50% by weight of a cornstarch filler. After 14 days, the threshold is lowered to 35 decibels right ear and 25 decibels left ear.
A person presents with symptoms of presbycusis, including loss of hearing in the 500 to above 2000 Hz range. The person is implanted with an Alset® osmotic pump adapted for cochlear delivery; see e.g., Richardson, R. T., Noushi, F., O'Leary, S. Inner ear therapy for neural preservation. AUDIOLOGY AND NEURO-OTOLOGY 2006; 11(6): 343-356. The pump is supplied with an aqueous sterile solution comprising AMN082. The pump delivers a dose of 10 ug/hour of the mGluR7 modulator. After 10 days, hearing is improved in both ears.

mGluR7 [4] = biological target: T3, mGluR7 (Mus musculus, UniProt Q68ED2); conditions: cited from earlier work
T3 construct: host or cells: whole animals (in vivo), endogenous receptor

mGluR7 [5] = biological target: T1, mGluR7; conditions: through an allosteric site; cited from earlier work
mGluR7 [6] = biological target: T1, mGluR7; conditions: antagonist; read-out: 1050 values on inhibition of glutamate stimulated inositol phosphate accumulation, mGluR7; cited from earlier work
mGluR6 = mGluR6 (Homo sapiens, UniProt O15303); conditions: antagonist; read-out: 1050 values on inhibition of glutamate stimulated inositol phosphate accumulation, mGluR6; cited from earlier work
mGluR8 [7] = biological target: T4, mGluR8 (Homo sapiens, UniProt O00222); conditions: antagonist; read-out: 1050 values on inhibition of glutamate stimulated inositol phosphate accumulation, mGluR8; cited from earlier work
mGluR7 [8] = biological target: T1, mGluR7; conditions: higher for mGluR7; cited from earlier work
mGluR1 = mGluR1 (Homo sapiens, UniProt Q13255); conditions: concentrations of at least 1 μM; cited from earlier work
mGluR8 [9] = biological target: T4, mGluR8; conditions: concentrations of at least 1 μM; cited from earlier work
mGluR3 = mGluR3 (Homo sapiens, UniProt Q14832); conditions: concentrations of at least 1 μM; cited from earlier work
mGluR7 [10] = biological target: T1, mGluR7; conditions: cited from earlier work
mGluR5 = mGluR5 (Homo sapiens, UniProt P41594); conditions: concentrations of at least 1 μM; cited from earlier work
mGluR4 = mGluR4 (Homo sapiens, UniProt Q14833); conditions: concentrations of at least 1 μM; cited from earlier work
mGluR2 = mGluR2 (Homo sapiens, UniProt Q14416); conditions: concentrations of at least 1 μM; cited from earlier work
mGluR7 [11] = biological target: T1, mGluR7; conditions: cited from earlier work; remark: listed apart in the source
mGluR7 [12] = biological target: T1, mGluR7; parameters: host or cells: CHO cells (printed only for the inverse-agonism experiment, A12); conditions: CHO cells expressing mGluR7; cited from earlier work
[13] = Example 3: person, topical otic drops twice daily, baseline 50 decibel, above 2000 Hz

T2 sequence (P35400 35-915): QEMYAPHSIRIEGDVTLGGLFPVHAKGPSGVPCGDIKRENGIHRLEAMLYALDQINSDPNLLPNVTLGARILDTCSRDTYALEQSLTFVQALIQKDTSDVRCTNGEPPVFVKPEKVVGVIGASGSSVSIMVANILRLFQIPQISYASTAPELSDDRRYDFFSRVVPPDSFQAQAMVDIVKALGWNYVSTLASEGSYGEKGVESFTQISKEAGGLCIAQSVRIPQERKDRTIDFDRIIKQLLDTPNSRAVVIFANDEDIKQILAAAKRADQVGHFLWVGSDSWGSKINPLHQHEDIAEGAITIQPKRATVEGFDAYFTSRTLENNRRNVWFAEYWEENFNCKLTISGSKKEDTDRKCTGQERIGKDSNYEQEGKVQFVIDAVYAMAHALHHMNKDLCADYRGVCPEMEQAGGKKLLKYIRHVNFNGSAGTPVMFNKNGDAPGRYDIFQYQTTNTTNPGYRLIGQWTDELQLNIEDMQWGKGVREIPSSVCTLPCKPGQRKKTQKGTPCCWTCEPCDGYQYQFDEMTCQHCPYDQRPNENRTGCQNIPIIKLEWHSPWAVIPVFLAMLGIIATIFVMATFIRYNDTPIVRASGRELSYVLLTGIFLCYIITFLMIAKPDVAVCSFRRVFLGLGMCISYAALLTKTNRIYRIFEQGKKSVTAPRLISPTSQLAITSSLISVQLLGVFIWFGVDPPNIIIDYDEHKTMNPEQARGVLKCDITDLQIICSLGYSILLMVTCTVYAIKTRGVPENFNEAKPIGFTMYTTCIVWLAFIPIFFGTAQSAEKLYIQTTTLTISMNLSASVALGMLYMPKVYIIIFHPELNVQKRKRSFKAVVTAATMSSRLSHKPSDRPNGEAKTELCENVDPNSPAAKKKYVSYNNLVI
T1 sequence (Q14831 35-915): as the sequence (P35400 35-915) above, with H420N, T454S, S486A, N544D counted along it
T3 sequence (Q68ED2 35-915): as the sequence (P35400 35-915) above, with H420N, S486P counted along it
T4 sequence (O00222 34-908, species assumed): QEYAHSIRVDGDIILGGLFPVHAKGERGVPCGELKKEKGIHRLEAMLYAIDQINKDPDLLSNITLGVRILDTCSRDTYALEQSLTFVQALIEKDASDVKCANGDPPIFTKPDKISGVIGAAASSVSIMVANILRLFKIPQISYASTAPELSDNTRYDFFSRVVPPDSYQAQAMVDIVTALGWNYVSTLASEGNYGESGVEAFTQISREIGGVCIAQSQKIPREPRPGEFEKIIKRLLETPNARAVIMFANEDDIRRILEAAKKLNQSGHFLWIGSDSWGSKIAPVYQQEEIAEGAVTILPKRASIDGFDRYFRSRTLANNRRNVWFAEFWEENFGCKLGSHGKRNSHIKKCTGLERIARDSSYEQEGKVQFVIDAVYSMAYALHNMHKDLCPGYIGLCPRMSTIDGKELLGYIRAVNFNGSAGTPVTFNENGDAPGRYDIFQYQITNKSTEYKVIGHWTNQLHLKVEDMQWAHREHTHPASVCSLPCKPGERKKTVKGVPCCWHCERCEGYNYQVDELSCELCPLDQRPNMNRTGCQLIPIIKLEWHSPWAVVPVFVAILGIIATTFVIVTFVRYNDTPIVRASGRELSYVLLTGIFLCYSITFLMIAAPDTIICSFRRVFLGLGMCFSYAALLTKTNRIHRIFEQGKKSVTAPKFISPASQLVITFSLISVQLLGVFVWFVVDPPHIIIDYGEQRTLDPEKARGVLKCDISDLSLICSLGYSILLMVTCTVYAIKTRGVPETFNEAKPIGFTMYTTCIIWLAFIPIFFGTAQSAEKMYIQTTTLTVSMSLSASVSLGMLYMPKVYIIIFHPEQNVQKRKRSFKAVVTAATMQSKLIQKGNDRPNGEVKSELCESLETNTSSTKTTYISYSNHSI
Sequence of mGluR4a (Q14833 33-912): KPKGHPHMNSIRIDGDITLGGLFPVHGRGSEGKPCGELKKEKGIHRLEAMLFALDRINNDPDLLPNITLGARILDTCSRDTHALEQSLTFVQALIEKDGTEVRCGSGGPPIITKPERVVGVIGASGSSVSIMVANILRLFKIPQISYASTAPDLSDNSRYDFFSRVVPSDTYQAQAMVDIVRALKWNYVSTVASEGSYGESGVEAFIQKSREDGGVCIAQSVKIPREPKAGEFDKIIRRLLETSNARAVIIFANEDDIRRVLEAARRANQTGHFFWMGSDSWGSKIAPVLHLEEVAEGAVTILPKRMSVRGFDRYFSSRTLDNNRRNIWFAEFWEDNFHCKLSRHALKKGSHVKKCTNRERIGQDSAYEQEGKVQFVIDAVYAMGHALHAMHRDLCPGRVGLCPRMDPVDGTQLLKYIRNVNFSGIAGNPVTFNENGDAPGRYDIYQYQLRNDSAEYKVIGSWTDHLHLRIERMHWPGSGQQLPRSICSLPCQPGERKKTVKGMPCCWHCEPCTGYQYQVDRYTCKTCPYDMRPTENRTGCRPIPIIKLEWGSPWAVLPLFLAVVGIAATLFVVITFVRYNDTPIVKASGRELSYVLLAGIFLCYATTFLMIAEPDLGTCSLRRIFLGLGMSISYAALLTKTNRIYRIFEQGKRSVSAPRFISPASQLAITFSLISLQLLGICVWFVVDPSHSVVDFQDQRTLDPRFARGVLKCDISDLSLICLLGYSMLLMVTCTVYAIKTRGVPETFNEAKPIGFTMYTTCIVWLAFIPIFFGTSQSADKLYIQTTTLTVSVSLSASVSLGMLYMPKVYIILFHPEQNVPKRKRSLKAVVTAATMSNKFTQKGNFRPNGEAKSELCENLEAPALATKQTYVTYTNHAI
Sequence of mGluR4 (Q14833 33-912): as above
Sequence of mGluR3 (Q14832 23-879): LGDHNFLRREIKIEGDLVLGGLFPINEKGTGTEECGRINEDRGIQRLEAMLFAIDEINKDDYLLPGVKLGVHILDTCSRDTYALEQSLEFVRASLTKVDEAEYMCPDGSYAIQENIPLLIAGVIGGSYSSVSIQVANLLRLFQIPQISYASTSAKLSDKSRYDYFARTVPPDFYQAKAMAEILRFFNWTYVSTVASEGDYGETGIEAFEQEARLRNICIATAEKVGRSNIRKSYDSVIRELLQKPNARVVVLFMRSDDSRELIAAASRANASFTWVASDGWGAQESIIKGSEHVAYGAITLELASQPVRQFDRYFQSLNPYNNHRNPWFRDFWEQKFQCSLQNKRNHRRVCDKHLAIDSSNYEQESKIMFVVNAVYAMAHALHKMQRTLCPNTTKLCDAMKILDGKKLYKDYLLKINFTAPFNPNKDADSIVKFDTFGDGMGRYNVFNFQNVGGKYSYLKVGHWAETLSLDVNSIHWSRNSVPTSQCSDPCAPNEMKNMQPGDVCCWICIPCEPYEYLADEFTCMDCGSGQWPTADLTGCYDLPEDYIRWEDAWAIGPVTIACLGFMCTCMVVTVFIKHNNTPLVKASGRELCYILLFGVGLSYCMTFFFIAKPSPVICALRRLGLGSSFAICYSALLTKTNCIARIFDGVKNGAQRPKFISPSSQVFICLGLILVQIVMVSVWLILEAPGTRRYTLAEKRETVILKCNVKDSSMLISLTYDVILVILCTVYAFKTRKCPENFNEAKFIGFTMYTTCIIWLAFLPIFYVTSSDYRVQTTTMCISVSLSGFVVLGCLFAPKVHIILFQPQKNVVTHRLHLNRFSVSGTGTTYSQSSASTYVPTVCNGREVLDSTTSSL
Sequence of mGluR6 (O15303 25-877): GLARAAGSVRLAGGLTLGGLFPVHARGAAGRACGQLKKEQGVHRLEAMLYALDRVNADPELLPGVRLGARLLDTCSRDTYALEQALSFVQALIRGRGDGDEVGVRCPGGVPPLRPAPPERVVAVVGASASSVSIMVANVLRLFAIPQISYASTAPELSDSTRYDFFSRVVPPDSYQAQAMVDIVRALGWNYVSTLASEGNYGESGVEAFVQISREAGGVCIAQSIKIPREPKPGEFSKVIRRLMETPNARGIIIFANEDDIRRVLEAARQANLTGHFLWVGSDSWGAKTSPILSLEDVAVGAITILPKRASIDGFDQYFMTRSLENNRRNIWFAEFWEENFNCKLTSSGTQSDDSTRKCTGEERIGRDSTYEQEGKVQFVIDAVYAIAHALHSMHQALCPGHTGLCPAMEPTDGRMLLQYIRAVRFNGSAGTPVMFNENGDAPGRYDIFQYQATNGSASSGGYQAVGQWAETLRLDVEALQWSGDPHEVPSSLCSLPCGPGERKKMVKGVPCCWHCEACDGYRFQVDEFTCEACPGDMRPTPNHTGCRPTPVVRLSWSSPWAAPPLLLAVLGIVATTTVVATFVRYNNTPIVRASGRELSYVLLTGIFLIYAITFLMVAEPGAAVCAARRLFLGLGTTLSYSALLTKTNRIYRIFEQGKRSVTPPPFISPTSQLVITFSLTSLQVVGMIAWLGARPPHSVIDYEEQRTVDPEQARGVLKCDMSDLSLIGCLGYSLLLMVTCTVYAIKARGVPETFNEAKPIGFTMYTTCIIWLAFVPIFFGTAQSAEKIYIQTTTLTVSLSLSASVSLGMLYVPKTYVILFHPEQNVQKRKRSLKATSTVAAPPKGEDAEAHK

In the case of “5-Methyl-3,6-diphenylisoxazolo[4,5-e]pyridin-4(5H)-one [MDIP]”, the “inhibition of the L-AP4-induced cAMP response” value (mGluR7 [1]) is listed as “inhibited”, the pIC50 (rat mGluR7 [2]; CHO cells coexpressing rat mGluR7 with G15, read-out: IC50, inhibition of L-AP4-induced intracellular Ca2+ mobilization) is listed as 7.70 and the pIC50 (rat mGluR7 [3]) is listed as 7.00.
For `N[C@@H](C(=O)O)c1ccc(P(=O)(O)O)cc1` (racemic) [(+)-PPG, (R,S)-phosphonophenylglycine], the pEC50 (human mGluR7b) is given as 4.32 and the pEC50 (mGluR4a) is given as 5.49.
In the case of `Cl.Cl.c1ccc(C(NCCNC(c2ccccc2)c2ccccc2)c2ccccc2)cc1` [AMN082, N,N′-dibenzhydryl-ethane-1,2-diamine dihydrochloride], the “hearing threshold left ear” value (presbycusis; [13]) was 40 decibels, the “hearing threshold right ear” value (presbycusis; [13]) was 35 decibels and the “hearing threshold left ear” value (presbycusis; Example 4: person, oral 2 ug 4 times per day, baseline 35 decibel, above 1000 Hz) was 25 decibels. For the same molecule, the “hearing threshold right ear” value (presbycusis; Example 4: person, oral 2 ug 4 times per day, baseline 40 decibel, above 1000 Hz) was 35 decibels, the “hearing in both ears” value (presbycusis; Example 5: person, cochlear osmotic pump 10 ug/hour, after 10 days) was “improved” and the oral activity (mGluR7 [4]; in vivo, po) was “orally active”. The blood-brain barrier penetration (mGluR7 [4]; in vivo) was “penetrate the blood-brain barrier”, the “increase in stress hormone levels in mGluR7 knockout animals” value (mGluR7 [4]; mGluR7 knockout animals) was “absent” and the stress hormone levels (mGluR7 [4]; wild-type animals) was “robust increase”. The “activation of mGluR7” value (mGluR7 [5]) was “fully activating”.
For `N[C@H](C(=O)O)C1[C@H](C(=O)O)[C@H]1C(=O)O` (stereo partly drawn) [DCG-IV, (2S,1'S,2'S)-2-(dicarboxycyclopropyl)glycine], the pIC50 (mGluR7 [6]) is listed as 4.40, the pIC50 (mGluR6) is listed as 4.40 and the pIC50 (mGluR8 [7]) is listed as 4.49.
In the case of `N[C@@H](CCP(=O)(O)O)C(=O)O` [L-AP4, L-(+)-2-amino-4-phosphonobutyric acid], the “concentrations activating mGluR7 relative to those activating mGluRs 4, 6, and 8” value (mGluR7 [8]) is given as 2-3 orders of magnitude.
In the case of `COc1ccc(-c2cc3onc(-c4ccncc4)c3c(=O)n2C)cc1` [MMPIP, 6-(4-methoxyphenyl)-5-methyl-3-pyridin-4-ylisoxazolo[4,5-c]pyridin-4(5H)-one], the “effect on mGluR1” value (mGluR1) is given as “no significant effect”, the “effect on mGluR8” value (mGluR8 [9]) is given as “no significant effect” and the “effect on mGluR3” value (mGluR3) is given as “no significant effect”. The “antagonism of AMN082-induced inhibition of cAMP accumulation” value (mGluR7 [10]) was “able to antagonize”, the “inhibition of the L-AP4-induced cAMP response” value (mGluR7 [1]) was “inhibited” and the “effect on mGluR5” value (mGluR5) was “no significant effect”. The “effect on mGluR4” value (mGluR4) was “no significant effect”, the “maximal response in agonist concentration-response curves in the presence of the compound” value (rat mGluR7 [2]) was “reduced” and the reversibility of antagonism (rat mGluR7 [2]) was “reversible”. For the same molecule, the “effect on mGluR2” value (mGluR2) was “no significant effect”, the pIC50 (rat mGluR7 [3]) was 6.66 and the “displacement of [3H]LY341495 bound to mGluR7” value (mGluR7 [11]) was “did not displace”. For the same molecule, the “forskolin-stimulated cAMP levels in the absence of agonists (inverse agonistic activity)” value (mGluR7 [12]) was “further increase”.
